Measured values as given in PubChem BioAssay (NCI).
“And” between values parts separate entries of the source, which are not always exact repeats. Equal values may be shown once.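 Briefly, cells in 96-well plates were exposed to five compound concentrations for 48 h, and endpoints were estimated by linear interpolation. GI50 is the concentration that inhibits growth by half. At the TGI there is no net growth.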 *1 amine or outer side, *2 acyl side, *3 side chain or, on linkers, in order; H or OH if unused. Where a SMILES comes first, the peptide text is derived from it. Bridges are numbered along the chain shown (N, C = ends). Roman numbers before positions name the chains, in order. X23 = CCCCCCCCCCCCCCC(=O)NC(CCCCN[*:2])C(=O)CN1CCCC1C(=O)[*:1]

Experiments:
Test in all cases: NCI-60 cell line screen, 48 h
[1] = system: SK-MEL-5 melanoma
[2] = system: OVCAR-5 ovarian
[3] = system: NCI-H23 lung
[4] = system: HCT-116 colon
[5] = system: MALME-3M melanoma
[6] = system: RPMI-8226 leukemia
[7] = system: TK-10 renal
[8] = system: UACC-62 melanoma
[9] = system: OVCAR-8 ovarian
[10] = system: DU-145 prostate

| Structure (SMILES) | TGI [1] [µM] | TGI [2] [µM] | TGI [3] [µM] | TGI [4] [µM] | TGI [5] [µM] | TGI [6] | TGI [7] [µM] | TGI [8] [µM] | TGI [9] | TGI [10] [µM] | GI50 [1] | GI50 [2] | GI50 [3] | GI50 [4] [µM] | GI50 [6] [µM] | GI50 [7] [µM] | GI50 [8] | GI50 [9] [µM] | GI50 [10] [µM] |
| --- | --- | --- | --- | --- | --- | --- | --- | --- | --- | --- | --- | --- | --- | --- | --- | --- | --- | --- | --- |
| O=C1NC2(NC(=O)C1=O)Nc1ccccc1S2 | > 100 | > 100 | > 100 | 38.9 | > 100 | 57.9 µM | > 100 | 63.8 | > 100 µM |  |  |  |  |  |  |  |  |  |  |
| O=CN(O)CC(=O)O.[Ni] | > 100 | > 100 | > 100 | > 100 | > 100 | > 100 µM |  | > 100 | > 100 µM | > 100 |  |  |  |  |  |  |  |  |  |
| COc1cccc2c1C(=O)c1c(O)c3c(c(O)c1C2=O)C[C@@](O)(C(C)=O)C[C@@H]3OC1CC(N(C)C)C(O)C(C)O1 (stereo partly drawn) |  |  |  |  |  | 0.23 µM and 1.92 µM | 1.34 |  | 2.8 µM and 3.75 µM | 0.00739 | 0.0368 µM and < 0.0109 µM | 0.0266 µM and 0.0147 µM | 0.0394 µM and < 0.0142 µM | 0.00225 | < 0.0159 | 0.122 | 0.0372 µM and < 0.0115 µM | 0.00719 |  |
| Nc1nccc2c1ncn2C1C=C(CO)C(O)C1O (stereo not drawn) | > 1000 | > 54.1 | > 1000 | > 85.8 |  | > 1000 µM | > 1000 | > 1000 | > 1000 µM |  |  |  | 269 µM |  | 243 | 29.4 | 6.88 µM | 23.9 |  |
| CC(=O)C1=C(C)N(c2ccc(C)cc2)C2(O)C=CC(=O)C3=C(O)c4ccccc4C(=O)C312 (stereo not drawn) | 26.3 | 56.2 | 52.5 | > 100 | 5.07 | > 100 µM | 47.2 | 27.4 | 64.6 µM | > 100 |  |  |  |  |  |  |  |  |  |
| OCCSCc1cc(Cl)cc(Cl)c1O | > 100 | > 100 | > 100 | > 100 | > 100 | > 100 µM | > 100 | > 100 | > 100 µM | > 100 |  |  |  |  |  |  |  |  |  |
| NS(=O)(=O)c1ccc(N=Nc2ccc(O)c(O)c2)cc1 | 19.7 | > 100 | 51.8 | 26.2 | 54.9 | 39.7 µM | 93 |  | 21.5 µM | > 100 |  |  |  |  |  |  |  |  |  |
| CCCCCCCCCCCCCCC(=O)NC(CCCCNC(=O)C1CCCN1C(=O)C(CCCCN)NC(=O)C(CCCCN)NC(=O)C(CCCCN)NC(=O)C(CCCNC(=N)N)NC(=O)C(CCCCN)NC(=O)C(N)C(C)C)C(=O)CN1CCCC1C(=O)NCC(=O)NC(Cc1ccccc1)C(=O)N1CCCC1C(=O)NC(CO)C(=O)NC(Cc1ccc(O)cc1)C(=O)NC(CCCCN)C(=O)NC(CC(C)C)C(=O)NC(CCCNC(=N)N)C(=O)N1CCCC1C(=O)NCC(N)=O (stereo not drawn) (I: GFPSYKLRPG-NH2 / II: H-VKRKKKP; linker I:N-II:C via X23; configuration not given here) | > 100 | 74.9 | 92.8 | 33.1 |  | 30 µM | 13.7 |  | 85.8 µM | 64.2 | 8.01 µM | 29.7 µM | 23.8 µM | 14.3 | 11 | 0.704 |  | 26.3 | 24.6 |
| CC1C(O)[C@@]2(OC[C@@]34C(=O)CC5(O)[C@H](CCC6Cc7nc8c(nc7C[C@]65C)CC5CC[C@@H]6C7=C[C@H]9O[C@@]%10(O[C@@](C)(CO)C[C@@H]%10O)C(C)[C@@]9(O)[C@]7(C)[C@@H](O)CC6[C@]5(C)C8)C3=CC[C@H]4C2C)OC1(C)C (stereo partly drawn) | 0.415 | 0.0795 | 0.435 | 0.542 | 0.0275 | < 0.000355 µM |  | 0.00489 | > 3.55 µM |  |  |  |  |  |  |  |  |  |  |
| O=C1/C(=C/c2ccc3c(c2)OCO3)Sc2scc(-c3ccc(O)c(O)c3)[n+]21 | > 22.4 | 30.6 | 9.29 | 6.29 |  | 4.42 µM | 3.71 | 8.28 | 9.94 µM | 13.1 |  |  |  |  |  |  |  |  |  |
| Cc1cc(O)c2cc3c(O)c(O)ccc3cc2c1 | 1.07 | 13.5 | 6 |  | 3.52 | > 100 µM | 33.7 | 22.6 | 11.2 µM | > 50.8 |  |  |  |  |  |  |  |  |  |
| CCOC(=O)c1c(SC)nc(-c2ccc(Cl)cc2)sc1=N | 38.8 | > 100 | 80.3 | 72 | 49 | > 100 µM | > 100 | > 100 | 80 µM | > 100 |  |  |  |  |  |  |  |  |  |
| O=[N+]([O-])c1ccc(/C=N/n2c(CCc3n[nH]c(=S)n3/N=C/c3ccc([N+](=O)[O-])o3)n[nH]c2=S)o1 | 33.3 | > 100 | 34.7 | 29 |  | > 100 µM | > 100 |  | > 100 µM | 29.7 |  |  |  |  |  |  |  |  |  |
| O=CNNC(=O)CSc1nc2ccc(I)cc2c(=O)n1Cc1ccccc1 | 38.2 | > 100 | 89.6 | 49.5 |  | 23.8 µM | > 100 | 47.6 | > 100 µM | > 100 |  |  |  |  |  |  |  |  |  |
| Cc1ccc([S+](c2ccccc2)c2cc(C)ccc2C)cc1 (stereo not drawn) | 3.91 |  |  | > 100 | > 100 | > 100 µM |  | > 100 | > 100 µM |  |  |  |  |  |  |  |  |  |  |
| COC1=CCC2=C(CCN(C(=O)C3CC3)C2Cc2ccc(OC)c(O)c2)C1 (stereo not drawn) | > 100 | > 100 | 66.1 | > 100 | > 100 | > 100 µM | > 100 | > 100 | > 100 µM | > 100 |  |  |  |  |  |  |  |  |  |
| CC(=O)OCC1OC(N2C(=O)CC(N)=Nc3ccccc32)C(OC(C)=O)C(OC(C)=O)C1OC(C)=O (stereo not drawn) | 46.8 | > 100 | > 100 | > 100 | > 100 | 49.8 µM | > 100 | > 100 | > 100 µM | > 100 |  |  |  |  |  |  |  |  |  |
| O=C1CC(NC2CC(=O)c3c(Br)sc(Br)c32)c2c(Br)sc(Br)c21 (stereo not drawn) | 18.2 | 41.4 | 28.3 | 6.46 | 5.62 |  | 6.47 | 24.2 | 10.3 µM | 16.5 |  |  |  |  |  |  |  |  |  |
| Oc1ccc(NCc2cc(O)ccc2O)cc1 | 38.9 | 35.9 | 38.7 | 35.8 | 34.3 | 44.4 µM | 30.4 | 29.3 | > 100 µM | 32.9 |  |  |  |  |  |  |  |  |  |
| CC(C)(C)OC(=O)N1CCCC1C(=O)NCCNc1ccc(NCCNC(=O)C2CCCN2C(=O)OC(C)(C)C)c2c1C(=O)c1ccccc1C2=O (stereo not drawn) |  | 30.6 | 29.4 | 26 | 33 | 0.0538 µM | 49.1 | 23.8 | 21 µM |  |  |  |  |  |  |  |  |  |  |
| CN(CCNC(=O)c1cn(C)c2c1ccc1cc(Cl)ccc12)CCNC(=O)c1cn(C)c2c1ccc1cc(Cl)ccc12 | > 26.9 | 4.41 | 4.87 | 3.18 | 4.85 |  | 18.2 | 10.8 | 33.8 µM | 3.25 |  |  |  |  |  |  |  |  |  |
